Experiment: Inhibition of recombinant human IL-17A/IL-17AR protein-protein interaction using TMB substrate compound added on IL17A precoated plate and followed by IL-17AR addition by ELISA

CO[C@]1(C)C[C@H](O[C@H]2[C@H](C)[C@@H](O[C@@H]3O[C@H](C)C[C@H](N(C)C)[C@H]3O)[C@](C)(O)C[C@@H](C)CN(C)C(=O)C[C@@H](Cc3ccc(NC(=O)[C@H](Cc4ccccc4Cl)NC(=O)c4ccccc4)cc3)NC(=O)[C@H](C(C)C)NC(=O)[C@@H]2C)O[C@@H](C)[C@@H]1O and CO[C@]1(C)C[C@H](O[C@H]2[C@H](C)[C@@H](O[C@@H]3O[C@H](C)C[C@H](N(C)C)[C@H]3O)[C@](C)(O)C[C@@H](C)CN(C)C(=O)C[C@@H](Cc3ccc(NC(=O)[C@H](Cc4ccccc4Cl)NC(=O)C(C)c4ccccc4)cc3)NC(=O)[C@H](C(C)C)NC(=O)[C@@H]2C)O[C@@H](C)[C@@H]1O (stereo partly drawn) are within 1.5-fold of each other in IC50: 320 nM for the first, 246 nM for the second.

Compared with CO[C@]1(C)C[C@H](O[C@H]2[C@H](C)[C@@H](O[C@@H]3O[C@H](C)C[C@H](N(C)C)[C@H]3O)[C@](C)(O)C[C@@H](C)CN(C)C(=O)C[C@@H](Cc3ccc(NC(=O)[C@H](Cc4ccccc4Cl)NC(=O)Cc4ccccc4)cc3)NC(=O)[C@H](C)NC(=O)[C@@H]2C)O[C@@H](C)[C@@H]1O, CO[C@]1(C)C[C@H](O[C@H]2[C@H](C)[C@@H](O[C@@H]3O[C@H](C)C[C@H](N(C)C)[C@H]3O)[C@](C)(O)C[C@@H](C)CN(C)C(=O)C[C@@H](Cc3ccc(NC(=O)[C@H](Cc4ccccc4Cl)NC(=O)Cc4ccccc4)cc3)NC(=O)[C@@H](C)NC(=O)[C@@H]2C)O[C@@H](C)[C@@H]1O is higher in IC50: 15000 nM for the first, > 30000 nM for the second.

First: CO[C@]1(C)C[C@H](O[C@H]2[C@H](C)[C@@H](O[C@@H]3O[C@H](C)C[C@H](N(C)C)[C@H]3O)[C@](C)(O)C[C@@H](C)CN(C)C(=O)C[C@@H](Cc3ccc(NC(=O)[C@H](Cc4ccccc4Cl)NC(=O)Cc4ccccc4)cc3)NC(=O)[C@@H]3CCCN3C(=O)[C@@H]2C)O[C@@H](C)[C@@H]1O
Second: CO[C@]1(C)C[C@H](O[C@H]2[C@H](C)[C@@H](O[C@@H]3O[C@H](C)C[C@H](N(C)C)[C@H]3O)[C@](C)(O)C[C@@H](C)CN(C)C(=O)C[C@@H](Cc3ccc(NC(=O)[C@H](Cc4ccccc4Cl)NC(=O)Cc4ccccc4)cc3)NC(=O)[C@H](C3CC3)NC(=O)[C@@H]2C)O[C@@H](C)[C@@H]1O
The IC50 of the first is higher: > 30000 nM for the first, 2620 nM for the second.

Going from CO[C@]1(C)C[C@H](O[C@H]2[C@H](C)[C@@H](O[C@@H]3O[C@H](C)C[C@H](N(C)C)[C@H]3O)[C@](C)(O)C[C@@H](C)CN(C)C(=O)C[C@@H](Cc3ccc(NC(=O)[C@H](Cc4ccccc4Cl)NC(=O)Cc4ccccc4)cc3)NC(=O)[C@H](CC(C)C)NC(=O)[C@@H]2C)O[C@@H](C)[C@@H]1O to CO[C@]1(C)C[C@H](O[C@H]2[C@H](C)[C@@H](O[C@@H]3O[C@H](C)C[C@H](N(C)C)[C@H]3O)[C@](C)(O)C[C@@H](C)CN(C)C(=O)C[C@@H](Cc3ccc(NC(=O)[C@H](Cc4ccccc4Cl)NC(=O)Cc4ccccc4)cc3)NC(=O)C[C@@H](CC(C)C)NC(=O)[C@@H]2C)O[C@@H](C)[C@@H]1O, the IC50 rises from 12600 nM to > 30000 nM.

First: CO[C@]1(C)C[C@H](O[C@H]2[C@H](C)[C@@H](O[C@@H]3O[C@H](C)C[C@H](N(C)C)[C@H]3O)[C@](C)(O)C[C@@H](C)CN(C)C(=O)C[C@@H](Cc3ccc(NC(=O)[C@H](Cc4ccccc4Cl)NC(=O)COc4ccccc4)cc3)NC(=O)[C@H](C(C)C)NC(=O)[C@@H]2C)O[C@@H](C)[C@@H]1O
Second: CO[C@]1(C)C[C@H](O[C@H]2[C@H](C)[C@@H](O[C@@H]3O[C@H](C)C[C@H](N(C)C)[C@H]3O)[C@](C)(O)C[C@@H](C)CN(C)C(=O)C[C@@H](Cc3ccc(NC(=O)[C@H](Cc4ccccc4F)NC(=O)Cc4ccccc4)cc3)NC(=O)[C@H](C(C)C)NC(=O)[C@@H]2C)O[C@@H](C)[C@@H]1O
The IC50 of the first is 3.5-fold higher: 1090 nM for the first, 315 nM for the second.

First: CO[C@]1(C)C[C@H](O[C@H]2[C@H](C)[C@@H](O[C@@H]3O[C@H](C)C[C@H](N(C)C)[C@H]3O)[C@](C)(O)C[C@@H](C)CN(C)C(=O)C[C@@H](Cc3ccc(NC(=O)[C@H](Cc4ccccc4Cl)NC(=O)Cc4cccc(C#N)c4)cc3)NC(=O)[C@H](C(C)C)NC(=O)[C@@H]2C)O[C@@H](C)[C@@H]1O
Second: CO[C@]1(C)C[C@H](O[C@H]2[C@H](C)[C@@H](O[C@@H]3O[C@H](C)C[C@H](N(C)C)[C@H]3O)[C@](C)(O)C[C@@H](C)CN(C)C(=O)C[C@@H](Cc3ccc(NC(=O)[C@H](Cc4ccccc4Cl)NC(=O)Cc4ccc(C#N)cc4)cc3)NC(=O)[C@H](C(C)C)NC(=O)[C@@H]2C)O[C@@H](C)[C@@H]1O
The IC50 of the first is 1.6-fold higher: 471 nM for the first, 303 nM for the second.

Compared with CO[C@]1(C)C[C@H](O[C@H]2[C@H](C)[C@@H](O[C@@H]3O[C@H](C)C[C@H](N(C)C)[C@H]3O)[C@](C)(O)C[C@@H](C)CN(C)C(=O)[C@@H](C(C)C)NC(=O)C[C@H](Cc3ccc(NC(=O)[C@H](Cc4ccccc4Cl)NC(=O)Cc4ccccc4)cc3)NC(=O)[C@@H]2C)O[C@@H](C)[C@@H]1O, CO[C@]1(C)C[C@H](O[C@H]2[C@H](C)[C@@H](O[C@@H]3O[C@H](C)C[C@H](N(C)C)[C@H]3O)[C@](C)(O)C[C@@H](C)CN(C)C(=O)[C@H](C(C)C)NC(=O)C[C@@H](Cc3ccc(NC(=O)[C@H](Cc4ccccc4Cl)NC(=O)Cc4ccccc4)cc3)NC(=O)[C@@H]2C)O[C@@H](C)[C@@H]1O is higher in IC50: 256 nM for the first, > 30000 nM for the second. The first is the more potent here.

Compared with CO[C@]1(C)C[C@H](O[C@H]2[C@H](C)[C@@H](O[C@@H]3O[C@H](C)C[C@H](N(C)C)[C@H]3O)[C@](C)(O)C[C@@H](C)CN(C)C(=O)C[C@@H](Cc3ccc(NC(=O)[C@H](Cc4ccccc4Cl)NS(=O)(=O)Cc4ccccc4)cc3)NC(=O)[C@H](C(C)C)NC(=O)[C@@H]2C)O[C@@H](C)[C@@H]1O, CO[C@]1(C)C[C@H](O[C@H]2[C@H](C)[C@@H](O[C@@H]3O[C@H](C)C[C@H](N(C)C)[C@H]3O)[C@](C)(O)C[C@@H](C)CN(C)C(=O)C[C@@H](Cc3ccc(NC(=O)[C@H](Cc4ccccc4C)NC(=O)Cc4ccccc4)cc3)NC(=O)[C@H](C(C)C)NC(=O)[C@@H]2C)O[C@@H](C)[C@@H]1O is 5.2-fold lower in IC50: 2560 nM for the first, 488 nM for the second. The second is the more potent here.

Compared with CO[C@]1(C)C[C@H](O[C@H]2[C@H](C)[C@@H](O[C@@H]3O[C@H](C)C[C@H](N(C)C)[C@H]3O)[C@](C)(O)C[C@@H](C)CN(C)C(=O)C[C@@H](Cc3ccc(NC(=O)[C@H](Cc4ccccc4Cl)NC(=O)NCc4cccc(F)c4)cc3)NC(=O)[C@H](C(C)C)NC(=O)[C@@H]2C)O[C@@H](C)[C@@H]1O, CO[C@]1(C)C[C@H](O[C@H]2[C@H](C)[C@@H](O[C@@H]3O[C@H](C)C[C@H](N(C)C)[C@H]3O)[C@](C)(O)C[C@@H](C)CN(C)C(=O)C[C@@H](Cc3ccc(NC(=O)[C@H](Cc4ccccc4Cl)NC(=O)Nc4cccc(F)c4)cc3)NC(=O)[C@H](C(C)C)NC(=O)[C@@H]2C)O[C@@H](C)[C@@H]1O is 11-fold higher in IC50: 48 nM for the first, 547 nM for the second.

First: CO[C@]1(C)C[C@H](O[C@H]2[C@H](C)[C@@H](O[C@@H]3O[C@H](C)C[C@H](N(C)C)[C@H]3O)[C@](C)(O)C[C@@H](C)CN(C)C(=O)C[C@@H](Cc3ccc(NC(=O)[C@H](Cc4ccccc4Cl)NC(=O)Cc4ccccc4)cc3)NC(=O)[C@@H](C(C)C)CNC(=O)[C@@H]2C)O[C@@H](C)[C@@H]1O
Second: CO[C@]1(C)C[C@H](O[C@H]2[C@H](C)[C@@H](O[C@@H]3O[C@H](C)C[C@H](N(C)C)[C@H]3O)[C@](C)(O)C[C@@H](C)CN(C)C(=O)[C@@H](Cc3ccc(NC(=O)[C@H](Cc4ccccc4Cl)NC(=O)Cc4ccccc4)cc3)NC(=O)[C@@H](C(C)C)CNC(=O)[C@@H]2C)O[C@@H](C)[C@@H]1O
The IC50 of the first is lower: 24800 nM for the first, > 30000 nM for the second. The first is the more potent here.

CO[C@]1(C)C[C@H](O[C@H]2[C@H](C)[C@@H](O[C@@H]3O[C@H](C)C[C@H](N(C)C)[C@H]3O)[C@](C)(O)C[C@@H](C)CN(C)C(=O)C[C@@H](Cc3ccc(NC(=O)[C@H](Cc4ccc(Cl)cc4Cl)NC(=O)Cc4ccccc4)cc3)NC(=O)[C@H](C(C)C)NC(=O)[C@@H]2C)O[C@@H](C)[C@@H]1O and CO[C@]1(C)C[C@H](O[C@H]2[C@H](C)[C@@H](O[C@@H]3O[C@H](C)C[C@H](N(C)C)[C@H]3O)[C@](C)(O)C[C@@H](C)CN(C)C(=O)C[C@@H](Cc3ccc(NC(=O)[C@H](Cc4c(Cl)cccc4Cl)NC(=O)Cc4ccccc4)cc3)NC(=O)[C@H](C(C)C)NC(=O)[C@@H]2C)O[C@@H](C)[C@@H]1O are within 1.5-fold of each other in IC50: 211 nM for the first, 166 nM for the second.

First: CO[C@]1(C)C[C@H](O[C@H]2[C@H](C)[C@@H](O[C@@H]3O[C@H](C)C[C@H](N(C)C)[C@H]3O)[C@](C)(O)C[C@@H](C)CN(C)C(=O)C[C@@H](Cc3ccc(NC(=O)[C@H](Cc4ccccc4Cl)NC(=O)Cc4ccccc4)cc3)NC(=O)C[C@H](C(C)C)NC(=O)[C@@H]2C)O[C@@H](C)[C@@H]1O
Second: CO[C@]1(C)C[C@H](O[C@H]2[C@H](C)[C@@H](O[C@@H]3O[C@H](C)C[C@H](N(C)C)[C@H]3O)[C@](C)(O)C[C@@H](C)CN(C)C(=O)[C@H](Cc3ccc(NC(=O)[C@H](Cc4ccccc4Cl)NC(=O)Cc4ccccc4)cc3)NC(=O)[C@H](C(C)C)NC(=O)[C@@H]2C)O[C@@H](C)[C@@H]1O
The IC50 of the first is higher: > 30000 nM for the first, 15900 nM for the second. The second is the more potent here.

Compared with CO[C@]1(C)C[C@H](O[C@H]2[C@H](C)[C@@H](O[C@@H]3O[C@H](C)C[C@H](N(C)C)[C@H]3O)[C@](C)(O)C[C@@H](C)CN(C)C(=O)C[C@@H](Cc3ccc(NC(=O)[C@H](Cc4ccccc4Cl)NC(=O)Nc4ccc(F)cc4)cc3)NC(=O)[C@H](C(C)C)NC(=O)[C@@H]2C)O[C@@H](C)[C@@H]1O, CO[C@]1(C)C[C@H](O[C@H]2[C@H](C)[C@@H](O[C@@H]3O[C@H](C)C[C@H](N(C)C)[C@H]3O)[C@](C)(O)C[C@@H](C)CN(C)C(=O)C[C@@H](Cc3ccc(NC(=O)[C@H](Cc4ccccc4Cl)NC(=O)Cc4ccc(F)cc4)cc3)NC(=O)[C@H](C(C)C)NC(=O)[C@@H]2C)O[C@@H](C)[C@@H]1O is 1.8-fold higher in IC50: 323 nM for the first, 573 nM for the second.

First: CO[C@]1(C)C[C@H](O[C@H]2[C@H](C)[C@@H](O[C@@H]3O[C@H](C)C[C@H](N(C)C)[C@H]3O)[C@](C)(O)C[C@@H](C)CN(C)C(=O)C[C@@H](Cc3ccc(NC(=O)[C@H](Cc4ccccc4Cl)NC(=O)Nc4ccccc4F)cc3)NC(=O)[C@H](C(C)C)NC(=O)[C@@H]2C)O[C@@H](C)[C@@H]1O
Second: CO[C@]1(C)C[C@H](O[C@H]2[C@H](C)[C@@H](O[C@@H]3O[C@H](C)C[C@H](N(C)C)[C@H]3O)[C@](C)(O)C[C@@H](C)CN(C)C(=O)[C@H](Cc3ccc(NC(=O)[C@H](Cc4ccccc4Cl)NC(=O)Cc4ccccc4)cc3)NC(=O)[C@@H](C(C)C)NC(=O)[C@@H]2C)O[C@@H](C)[C@@H]1O
The IC50 of the first is 47-fold lower: 30 nM for the first, 1400 nM for the second.
